The source of these data is PubChem BioAssay (NCI).

Test systems include SN12C renal; NCI-H23 lung; RXF 393 renal; CAKI-1 renal; HOP-62 NSCLC; TK-10 renal; HCC-2998 colon; KM12 colon; HOP-92 NSCLC; SK-OV-3 ovarian.
Common to all, as to assay: NCI tumour cell line growth inhibition, 48 h

Each structure is given as a SMILES string.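 How tested: cells in 96-well plates exposed to compound for 48 hours at five concentrations. The concentration for 50% growth inhibition is given as GI50. At the TGI there is no net growth.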

In the case of `CCN(CC)CCOc1ccc(/C=C2\CC3C4CC=C5C[C@@H](O)CC[C@]5(C)C4CC[C@]3(C)C2=O)cc1OC` (stereo not given in full), the GI50 is 3.54 µM in the experiment on SN12C renal; 7.71 µM in the experiment on NCI-H23 lung; 5.64 µM with RXF 393 renal; 4.14 µM in the experiment with CAKI-1 renal; 3.94 µM in the experiment on HOP-62 NSCLC; 9.94 µM with TK-10 renal. For the same compound, the GI50 in the experiment on HCC-2998 colon was 8.43 µM; in the experiment with KM12 colon, 3.34 µM; in the experiment on HOP-92 NSCLC, 1.45 µM; in the experiment on SK-OV-3 ovarian it was 8.64 µM. Also, the TGI is 19.4 µM in the experiment on SN12C renal; greater than 60.6 µM with NCI-H23 lung; 21.5 µM with RXF 393 renal; 16.3 µM with CAKI-1 renal; 10.9 µM with HOP-62 NSCLC; 21.5 µM in the experiment with TK-10 renal. The TGI was 21.6 µM with HCC-2998 colon, 13.8 µM in the experiment with KM12 colon, 32.2 µM in the experiment with HOP-92 NSCLC and greater than 58.3 µM in the experiment on SK-OV-3 ovarian.
Consider `COc1ccc(NC(=O)/C(N=O)=C(/C)O)cc1`, for which the TGI in the experiment with SN12C renal, in the experiment with NCI-H23 lung, in the experiment with RXF 393 renal, in the experiment with CAKI-1 renal, with HOP-62 NSCLC and in the experiment on TK-10 renal was greater than 100 µM each time. Besides, the TGI in the experiment on HCC-2998 colon, in the experiment with KM12 colon, in the experiment with HOP-92 NSCLC and in the experiment with SK-OV-3 ovarian was greater than 100 µM each time.
